ChEMBL document CHEMBL2057202, “Investigation of substituted 6-aminohexanoates as skin penetration enhancers” (Bioorg Med Chem, 2012)

Assays:
[1] = Potentiation of theophylline transdermal permeation in pig ear skin assessed as enhancement ratio at 20 mg after 24 hrs by Franz diffusion cell method; assay type: ADME, Sus scrofa
[2] = system: SK-N-MC; test: Antiproliferative activity against human SK-N-MC cells after 72 hrs by MTT assay; assay type: cell-based
[3] = Lipophilicity, log K of the compound by RP-HPLC analysis; assay type: physicochemical

SMILES	Ratio [1]	IC50 [2]	log K [3]
CCCCCCCOC(=O)C(CCCCN1C(=O)CCC1=O)N1CCCCCC1=O (stereo unspecified)	–	> 6.25 µM	0.0658
CCCCCCCCOC(=O)C(CCCCN1C(=O)CCC1=O)N1CCCCCC1=O (stereo unspecified)	2.24	> 6.25 µM	0.2462
CCCCCCCCCOC(=O)C(CCCCN1C(=O)CCC1=O)N1CCCCCC1=O (stereo unspecified)	1.87	> 6.25 µM	0.4095
CCCCCCCCCCOC(=O)C(CCCCN1C(=O)CCC1=O)N1CCCCCC1=O (stereo unspecified)	–	> 6.25 µM	0.6158
CCCCCCCCCCCOC(=O)C(CCCCN1C(=O)CCC1=O)N1CCCCCC1=O (stereo unspecified)	1.81	> 6.25 µM	0.7462
CCCCCCCCCCCCOC(=O)C(CCCCN1C(=O)CCC1=O)N1CCCCCC1=O (stereo unspecified)	2.48	> 6.25 µM	0.9081
CCCCCCCC/C=C\CCCCCCCC(=O)O [OLEIC ACID]	1.13	–	–

Results, then the molecule that gave them:

Ratio [1]	IC50 [2]	log K [3]	SMILES
2.71	> 6.25 µM	-0.0201	CCCCCCOC(=O)CCCCCN1C(=O)CCC1=O
2.64	> 6.25 µM	0.15	CCCCCCCOC(=O)CCCCCN1C(=O)CCC1=O
2.55	> 6.25 µM	0.3239	CCCCCCCCOC(=O)CCCCCN1C(=O)CCC1=O
3.14	> 6.25 µM	0.4901	CCCCCCCCCOC(=O)CCCCCN1C(=O)CCC1=O
3.54	> 6.25 µM	0.6548	CCCCCCCCCCOC(=O)CCCCCN1C(=O)CCC1=O
3.51	> 6.25 µM	0.8368	CCCCCCCCCCCOC(=O)CCCCCN1C(=O)CCC1=O
2.93	> 6.25 µM	1.0091	CCCCCCCCCCCCOC(=O)CCCCCN1C(=O)CCC1=O
1.93	> 6.25 µM	-0.0764	CCCCCCOC(=O)C(CCCCN1C(=O)CCC1=O)N1CCCCCC1=O (stereo unspecified)
